Measured values: US20230322815A1, “NOVEL COMPOUNDS AND THERAPEUTIC USES THEREOF” (University of Huddersfield, priority 2020, published 2023)
“Also recorded” adds a separate entry of the source.

Tests used:
[1] = Phosphatase activity: hydrolysis of phenyl phosphate
Method: FIG. 6. Phosphatase activity of [L2Zn3]^6+. ^31P NMR spectra using different substrates including PhOPO3 (spectra A to D), serine phosphate (spectra E to H), threonine phosphate (spectra I to L) and tyrosine phosphate (spectra M to P). Specific details for each ^31P NMR spectra are as follows: Spectra A, E, I and M represent substrate alone (44 hrs incubated @ 37° C.); Spectra B, F, J and N represents [L2Zn3]^6+ plus substrate (t=0 min); Spectra C, G, K and O represents [L2Zn3]^6+ plus substrate incubated @ 37° C. for 19 hours; Spectra D, H, L and […] represents [L2Zn3]^6+ plus substrate incubated @ 37° C. for 44 hours. The ^31P NMR of [L2Zn3(PO4)]^3+ gives a signal at 8.6 ppm.
Only [L2Zn3(PO4)]^3+ was observed, coupled with a rapid yellowing of the solution due to the formation of 4-nitrophenolate.
The rate of substrate hydrolysis is also dependent upon the metal used in the self-assembly process.

[2] = test system: HCT116 tumors; assay: Chick embryo chorioallantoic membrane (CAM) assay, in ovo efficacy; type: in vivo, human tumor cells on chick embryo CAM; conditions: for doses giving statistically significant regression of tumor growth (mean tumor weight at E18): L2Zn3 70.5, 141, 282 μM, L2Cu3 75, 150, 300 μM
Method: FIG. 24. Activity of [L2Cu3]^6+ and [L2Zn3]^6+ against primary HCT116 tumors. The results presented represent the mean tumour weight ±SEM following treatment at 3 different doses of [L2Cu3]^6+ and [L2Zn3]^6+: L2Zn3 [1]=70.5 μM, L2Zn3 [2]=141 μM, L2Zn3 [3]=282 μM; L2Cu3 [1]=75 μM, L2Cu3[2]=150 μM, L2Cu3[3]=300 μM. SoC doxorubicin. Statistical analysis by one way ANOVA (*): 0.05≥p value >0.01; (**): 0.01≥p value >0.001; (***): 0.001≥p value; (****): 0.0001≥p value. Number per experimental group n=12-15.
FIG. 25. Evaluation of the effects of [L2Cu3]^6+ and [L2Zn3]^6+ on primary HCT116 metastasis to the lower CAM. Relative ALU expression (relative to chicken GAPDH) as a quantitive marker of metastasis of human cells to the lower CAM. Relative expression ±SEM. L2Zn3 [1]=70.5 μM, L2Zn3 [2]=141 μM, L2Zn3 [3]=282 μM; L2Cu3 [1]=75 μM, L2Cu3[2]=150 μM, L2Cu3[3]=300 μM. SoC doxorubicin. Number per experimental group n=7-8.
[L2Cu3]^6+ and [L2Zn3]^6+ were evaluated at three different doses for in ovo anti-cancer activity, toxicity and anti-metastatic activity against tumors initiated from three different human cancer cell line models (H460, HT29, HCT116), in the chick embryo chorioallantoic membrane (CAM) assay.
Each compound was provided to the contract research organisation (CRO) Inovotion (La Tronche, France) conducting the in ovo study, as a powder pre-weighed in single vials (2 equivalents of ligand, 3 equivalents of metal; and stored at room temperature). Before use, this was then dissolved in DMSO to 50 mM to generate a stock solution and further freshly diluted in RPM11640 or McCoys aqueous cell culture media for administration.
A standard of care (SoC) drug for the particular tumour type was tested concurrently as a comparative control for in vivo efficacy and toxicity evaluation. […]
On day E18, a 1 cm^2 portion of the lower CAM was collected (n=8 per group), stored at −20° C. and later processed to extract DNA. Samples were analysed for human genomic DNA (qPCR for Alu sequences) as a quantitative marker of tumor metastasis to the lower CAM.

[3] = biological target: recombinant Src (p-Y527, p-Y416) (Homo sapiens, UniProt P12931); assay: Western blot of purified recombinant kinase after exposure to complex; type: biochemical; conditions: 50 μM complex, 4 hours, in the presence of ATP
Sequence of recombinant Src (p-Y527, p-Y416) (P12931 whole entry): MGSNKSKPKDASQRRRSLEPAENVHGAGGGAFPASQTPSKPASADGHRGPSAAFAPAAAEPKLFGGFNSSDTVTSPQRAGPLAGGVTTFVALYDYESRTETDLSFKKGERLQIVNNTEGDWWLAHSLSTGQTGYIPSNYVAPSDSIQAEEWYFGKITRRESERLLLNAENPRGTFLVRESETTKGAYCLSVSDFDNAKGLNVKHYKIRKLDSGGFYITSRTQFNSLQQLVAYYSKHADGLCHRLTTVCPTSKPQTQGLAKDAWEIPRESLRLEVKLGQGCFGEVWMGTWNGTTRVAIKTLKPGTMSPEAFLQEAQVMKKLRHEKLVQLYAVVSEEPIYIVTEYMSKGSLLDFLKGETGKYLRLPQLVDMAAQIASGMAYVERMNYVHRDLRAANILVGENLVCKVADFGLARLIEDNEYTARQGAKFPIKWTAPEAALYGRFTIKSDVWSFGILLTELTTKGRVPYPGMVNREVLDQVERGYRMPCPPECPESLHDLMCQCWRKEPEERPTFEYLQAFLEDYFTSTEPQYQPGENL
Method: FIG. 10. Western blot analysis of purified recombinant Src and AMPK following exposure to [L2Zn3]^6+ and [L2Cu3]^6+. Purified enzymes were incubated with complexes (50 μM) for 4 hours in the presence of ATP prior to analysis.
Protein lysates and recombinant proteins were resolved on 15% SDS polyacrylamide gels. Proteins were electroblotted onto nitrocellulose membrane by wet transfer in 1×Tris Glycine buffer (Biorad) at 35 mA overnight at room temperature (Allison et al., 2014). After blocking of membranes, these were incubated with primary antibody overnight at 4° C. before addition of rabbit or mouse secondary antibody (HRP-conjugated) for 1 h at room temperature and development of blots by enhanced chemiluminescence. Primary antibodies were: anti-Src (total) (Cell Signalling Technology #2123 1:1000), anti-phosphorylated Src (Y527) (Cell Signalling Technology #21055 1:1000), anti-phosphorylated Src (Y416) (Cell Signalling Technology #69435 1:1000), anti-AMPKα (total) (Cell Signalling Technology #2532 1:1000), anti-phosphorylated AMPKα (T172) (Cell Signalling Technology […] 1:1000), anti-phospho-Tyr (pan) (Cell Signalling Technology #8954 1:2000), anti-p53 (Santa Cruz, DO-1 clone, 1:1000), anti-β-actin (Merck MAB1501, 1:40,000). Quantification of signals was performed by densitometry using Image J software.
For Src, effects of the complexes on two key regulatory phospho-amino acids were examined, Y527 and Y416 (FIG. 10). […] The decrease in p-Y527 is consistent with the selective phosphatase activity of [L2Zn3]^6+.

[4] = Direct ATP hydrolysis by the complex (mass spectroscopy); conditions: ATP incubated with complex alone
Excerpt: There are several potential mechanisms which could lead the observed kinase inhibition ‘readout’ of this screen including, i) direct ATP hydrolysis by the complex(es) and differing Km of the kinases for ATP, and, ii) dephosphorylation of the peptide substrate by the phosphatase activity of the Zn^2+ complex resulting in cycles of peptide phosphorylation by active recombinant enzyme and dephosphorylation by the complex.

[Cu+2].[Cu+2].[Cu+2].c1ccc(-c2csc(NCCN(CCNc3nc(-c4ccccn4)cs3)CCNc3nc(-c4ccccn4)cs3)n2)nc1.c1ccc(-c2csc(NCCN(CCNc3nc(-c4ccccn4)cs3)CCNc3nc(-c4ccccn4)cs3)n2)nc1 [[L2Cu3]^6+]
hydrolysis of phenyl phosphate ([1]; solid-state and ESI-MS data): does not hydrolyse phenyl phosphate
doses giving statistically significant regression of tumor growth (mean tumor weight at E18) [2]: all three tested doses
detection of p-Y416 [3]: could not be detected
hydrolysis of ATP [4]: little or no hydrolysis of ATP

[Zn+2].[Zn+2].[Zn+2].c1ccc(-c2csc(NCCN(CCNc3nc(-c4ccccn4)cs3)CCNc3nc(-c4ccccn4)cs3)n2)nc1.c1ccc(-c2csc(NCCN(CCNc3nc(-c4ccccn4)cs3)CCNc3nc(-c4ccccn4)cs3)n2)nc1 [[L2Zn3]^6+]
hydrolysis of PhOPO3^2− by 31P NMR ([1]; 25%:75% DMSO and buffered H2O (HEPES pH 7.5), 37° C., after 44 hrs): virtually no signal corresponding to PhOPO3^2− is observed
doses giving statistically significant regression of tumor growth (mean tumor weight at E18) [2]: the highest two doses tested
HCT116 metastatic load in the lower CAM (qPCR for Alu sequences) ([2]; all three doses, comparable to SoC doxorubicin): Decreases in HCT116 metastatic load; also recorded: strong regression tendency
decrease in p-Y527 relative to total Src levels [3]: ~30%
increase in p-Y416 levels [3]: ~5 fold
hydrolysis of ATP [4]: little or no hydrolysis of ATP
